In patent US5424292A (Depha Team s.r.l., priority 1990, dated 1995):

Assays:
[1] = cited from earlier work
[2] = male Fischer rats, doses equivalent to 60 mg/kg of 5-ASA via metal probe into stomach; for Recovery percentages of 5-ASA + N-acetyl-5-ASA in feces by HPLC: feces withdrawn at 2 hour intervals for 48 hours; for Recovery percentages of 5-ASA + N-acetyl-5-ASA in urine by HPLC: urine withdrawn at 2 hour intervals for 48 hours
Experimental: Particularly, male Fischer rats weighing about 200-250 g were used.
The rats were then placed in metabolic cages, from which feces and urine were withdrawn at 2 hour intervals for 48 hours.

Structure (SMILES)	Stability at the gastric pH [1]	Recovery percentages of 5-ASA + N-acetyl-5-ASA in feces by HPLC [2] [%]	Recovery percentages of 5-ASA + N-acetyl-5-ASA in urine by HPLC [2] [%]
Nc1ccc(O)c(C(=O)O)c1 [Compound 5-ASA, 5-aminosalicylic acid]	not stable at the gastric pH	05 ± 3	79 ± 3
N[C@@H](CCC(=O)O)C(=O)Nc1ccc(O)c(C(=O)O)c1 [Compound 2, (N-L-glutamyl)-amino-2-salicylic acid]		45 ± 4	34 ± 4
